The values below come from patent US20080274202A1, “Compositions and Method for Brain Specific Targeted Delivery of Therapeutic Agents” (priority 2005, published 2008).

This series concerns HOTCs. Nature of the series: HOTC maintenance in serum-free media with antibiotic. Format: cell-based. As to conditions: by 21 DIV, in SFM. The procedure:
HOTCs were prepared and maintained by initial incubation in serum-based media followed by transfer to a serum-free media (SFM) at 4 days in vitro (DIV). The transfer from serum-containing medium to SFM prevented neuronal loss from occurring after two weeks of culture (stability was measured by neuron-specific nuclear protein (NeuN)-based western blots), and prevented glial activation in the HOTCs. SFM contained Neurobasal medium ((96%) from Invitrogen) supplemented to 42 mM glucose, 1 mM glutamine (from Sigma), 2% B27 supplement, 10 μg/mL gentamicin and […] Fungizone (from Invitrogen). […] The SFM was changed twice a week and the HOTCs were incubated at 36° C. with 5% CO2-balance air. Slices were maintained to 21 DIV to allow cultures to mature, and used from 21-30 DIV.

As for penicillin, the “CA3 field potentials from dentate gyrus stimulation” value was “no CA3 field potentials were seen” and the “pyramidal cell survival in HOTCs” value is on record as “most pyramidal cells were dead”.
